Results taken from patent publication US12553889B2, “Small molecules targeting the intrinsically disordered structural ensemble of α-synuclein protect against diverse α-synuclein mediated dysfunctions” (The Regents of the University of California, priority 2019, dated 2026).
Entries after “also recorded” stand apart in the source; their conditions may differ.

Experiments:
αSyn [1] = target: T1, αSyn (Homo sapiens, UniProt P37840); assay: Cellular oligomerization assay (split Gaussia luciferase complementation in H4 cells); assay type: cell-based; details: maximal concentrations not showing toxicity, 0.3% DMSO
Method: H4 neuroglioma cells (HTB-148; ATCC) were passaged in DME containing 10% fetal calf serum (FCS). They were plated into 10 cm dishes at 7.5×10^5 cells per dish and the following day transfected with DNA and Fugene (Promega, Madison, WI) at a ratio of 3:1 with 7 μg each of Syn-Luc1 (S1) and Syn-Luc2 (S2) plasmids, which are also referred to as syn-hGluc(1) and syn-hGLuc(2) respectively (see Outeiro, T. F. et al. Plos One 3, e1867, incorporated herein by reference in entirety) and 3 μg of red firefly expressing plasmid (pCMV-Red firefly Luc, ThermoFisher, Waltham, MA) per dish according to the manufacturer's directions. S1 and S2 plasmids express αSyn containing split Gaussia luciferase with either the N-terminal fragment (S1) or C-terminal fragment (S2) attached to the C-terminus of αSyn. After 24 hours, the DNA containing media was removed and cells were fed fresh DME media containing 10% FCS. […] Gaussia luciferase activity was measured in the dark 0.1 sec after injection of 100 μl/well of […] coelenterazine, substrate (NanoLight, Pinetop, AZ) using a 2 sec integration on a Veritas Microplate Luminometer (Promega, Madison, WI). The cells were subsequently assayed for red Firefly activity using the ONE-Glo™ Luciferase Assay System kit (Promega, Madison, WI) on a Spectramax M5 (Molecular Devices, San Jose, CA) plate reader as a normalization measure. […]

αSyn [2] = target: T1, αSyn; assay: seeded αSyn fibrillization assay (αSyn seeds added at initiation); assay type: biochemical; parameters: made in house; host or cells: E. coli BL21(DE3), pET-21d
Method: Fibrillization assays. Prior to each aggregation assay, purified αSyn at 5 mg/mL was treated with 6M guanidine and dialyzed 36 hours in a 3500 MW cutoff Slide-A-lyzer with three changes of 20 mM sodium phosphate and 100 mM NaCl pH 7.4 buffer. αSyn was centrifuged at 130,000 g for 40 minutes in a Beckman Ultracentrifuge to remove seeding species and supernatant used for assays. For initial testing, 60 mM compound in DMSO was diluted to 300 μM in 0.5% DMSO and controls contained equivalent DMSO concentrations. Assay samples contained 20 μM Thioflavin T, filtered through a 0.45 μm Acrodisc filter prior to each assay, 70 μM αSyn in 20 mM sodium phosphate and 100 mM NaCl pH 7.4. One teflon bead, (0.125″ PTFE, Grade 2 polished) was placed in each well of a 96 well black with clear bottom assay plate (Corning) in a total volume of 500 μL. The plate was sealed with Mylar and parafilm, placed at 37° C. in a Tecan F200Pro Plate Reader and shaken at an amplitude of 6 mm for 120 hours continuously except for a brief time during reading of the plate. Thioflavin T fluorescence was detected by excitation at 440 nm and reading emissions at 485 nm each 60 minutes throughout the assay. […] Data were analyzed in Excel using XL-fit sigmoidal model #600 and when normalized, comparing fluorescence values at 50 hours for compounds as a percentage of DMSO control.

- time at which activity is first seen in seeded fibrillization (αSyn [2]; seeded fibrillization, time in the incubation): ≤ 2 h
SMILES: CNC(=O)c1cc(O)ccc1N [Compound 576755, 2-amino-5-hydroxy-N-methylbenzamide]
- impact on cellular αSyn oligomerization (αSyn [1]): reproducibly reduced cellular oligomers; also recorded: reduces αSyn oligomerization
- impact on seeded fibrillization (αSyn [2]; preformed αSyn fibrils/protofibrils added at initiation): blocks fibrillization; also recorded: anti-aggregation activity
